Measured values reported in patent publication US5461067A, “Retroviral protease inhibiting compounds” (priority 1994, dated 1995).
Like-named read-outs stand apart in the source and are kept apart here.

How the values were obtained:
HIV-13B in MT4 cells = test: Anti-HIV activity (inhibition of cytopathic effect of HIV) in MT4 cells; format: cell-based; settings: Human immunodeficiency virus 1, concentration giving 50% inhibition of cytopathic effect of HIV
From the text: (§1) The IC50 is the concentration of compound that gives 50% inhibition of the cytopathic effect of HIV. The LC50 is the concentration of compound at which 50% of the cells remain viable.

[1] = Cytotoxicity in MT4 cells; format: cell-based; settings: human, concentration at which 50% of the cells remain viable, read-out: LC50 (the source's name)
From the text: as §1

HIV-1 protease = HIV-1 protease (Human immunodeficiency virus type 1 group M subtype B, UniProt P04585); test: Fluorogenic assay for screening inhibitors of HIV protease
[2] = pH 4.5, read-out: Percent Inhibition

Row | SMILES | IC50 (HIV-1 protease) | IC50 (HIV-13B in MT4 cells) | CC50 [1] | inhibition at 0.0005 µM (HIV-1 protease; [2]) | further results
1 | CC(C)[C@H](NC(=O)OCc1ccccn1)C(=O)N[C@@H](Cc1ccccc1)[C@@H](O)CN(Cc1ccccc1)NC(=O)OC(C)(C)C [Example 2E, 5S-N-((2-Pyridinyl)methoxycarbonyl)valinylamino-2-t-butyloxycarbonylamino-4S-hydroxy-1,6-diphenyl-2-azahexane] | 0.5 nM | 780 to 1230 nM | 56000 nM | 50% | 
2 | CC(C)[C@H](NC(=O)OCc1ccccn1)C(=O)N[C@@H](Cc1ccccc1)[C@@H](O)CN(Cc1ccccc1)NC(=O)OCc1cccnc1 [Example 5B, 5S-N-((2-Pyridinyl)methoxycarbonyl)valinylamino-2-((N-3-pyridinyl)methoxycarbonyl)amino-4S-hydroxy-1,6-diphenyl-2-azahexane] |  | 150 to 260 nM | > 100000 nM | 60% | 
3 | CC(C)c1nc(COC(=O)N[C@H](C(=O)NN(Cc2ccoc2)C[C@H](O)[C@H](Cc2ccccc2)NC(=O)OCc2cncs2)C(C)C)co1 [Example 49E, 5S-(((5-Thiazolyl)methoxy)carbonyl)amino-2-((N-2-isopropyl-4-oxazolyl)methoxycarbonyl)amino-4S-hydroxy-1-(3-furanyl)-6-phenyl-2-azahexane] |  | 29 to 32 nM |  | 75% | 
4 | CC(C)c1nc(COC(=O)N[C@H](C(=O)N[C@@H](Cc2ccccc2)[C@@H](O)CN(Cc2ccc(O)cc2)NC(=O)OC(C)(C)C)C(C)C)co1 [Example 53, 5S-(((2-Isopropyl-4-oxazolyl)methoxycarbonyl)-valinyl)amino-2-(t-butyloxycarbonyl)amino-4S-hydroxy-1-(4-hydroxyphenyl)-6-phenyl-2-azahexane] |  | 55 nM |  | 57% | 
5 | COc1ccc(CN(C[C@H](O)[C@H](Cc2ccccc2)NC(=O)OCc2ccccc2)NC(=O)OC(C)(C)C)cc1 [Example 14B, 5S-N-(Benzyloxycarbonyl)amino-2-N-(t-butyloxycarbonyl)amino-4S-hydroxy-1-p-methoxyphenyl-6-phenyl-2-azahexane] | 10 nM |  |  |  | inhibition at 0.01 µM (HIV-1 protease; [2]): 50%
6 | CC(C)c1nc(CN(C)C(=O)N[C@H](C(=O)NN(Cc2ccoc2)C[C@H](O)[C@H](Cc2ccccc2)NC(=O)OCc2cncs2)C(C)C)cs1 [Example 48, 5S-(((5-Thiazolyl)methoxy)carbonyl)amino-2-N-(((N-methyl-N-( (2-isopropyl-4-thiazolyl)methyl)amino)carbonyl)-L-valinyl)amino-4S-hydroxy-1-(3-furanyl)-6-phenyl-2-azahexane] |  | 88 to 114 nM |  | 66% | 
7 | CC(C)c1nc(CN(C)C(=O)N[C@H](C(=O)NN(Cc2ccccc2)C[C@H](O)[C@H](Cc2ccccc2)NC(=O)OCc2ccccc2)C(C)C)co1 [Example 11, 5S-(Benzyloxycarbonyl)amino-2-N-((N-methyl-N-((2-isopropyl-4-oxazolyl)methyl)amino)carbonyl)-L-valinylamino-4S-hydroxy-1,6-diphenyl-2-azahexane] |  | 230 nM | 18000 nM | 69% | 
8 | CC(C)c1nc(COC(=O)N[C@H](C(=O)NN(Cc2ccccc2)C[C@H](O)[C@H](Cc2ccccc2)NC(=O)OCc2cncs2)C(C)C)co1 [Example 50, 5 S-(((5-Thiazolyl)methoxy)carbonyl)amino-2-((N-2-isopropyl-4-oxazolyl)methoxycarbonyl)amino-4S-hydroxy-1,6-diphenyl-2-azahexane] |  | 16 to 31 nM |  | 73% | 
9 | CC(C)c1nc(CN(C)C(=O)N[C@H](C(=O)NN(Cc2ccc(O)cc2)C[C@H](O)[C@H](Cc2ccccc2)NC(=O)OCc2cncs2)C(C)C)cs1 [Example 54B] |  | 37 to 67 nM |  | 56% | 
10 | COc1ccc(CN(C[C@H](O)[C@H](Cc2ccccc2)NC(=O)[C@@H](NC(=O)OCc2ccccn2)C(C)C)NC(=O)OCc2cccnc2)cc1 [Example 16, 5S-N-((2-Pyridinyl)methoxycarbonyl)-L-valinylamino-2-N-((3-pyridinyl)methoxycarbonyl)amino-4S-hydroxy-1-p-methoxyphenyl-6-phenyl-2-azahexane] | 0.5 nM | 200 to 270 nM | 57000 nM | 50% | 
11 | CC(C)c1nc(CN(C)C(=O)N[C@H](C(=O)N[C@@H](Cc2ccccc2)[C@@H](O)CN(Cc2ccccc2)NC(=O)OC(C)(C)C)C(C)C)co1 [Example 9F, 5S-N-((N-Methyl-N-((2-isopropyl-4-oxazolyl)methyl)amino)carbonyl)-L-valinylamino-2-N-(t-butyloxycarbonyl)amino-4S-hydroxy-1,6-diphenyl-2-azahexane] |  | 460 to 1000 nM | 19000 nM | 61% | 
12 | CCc1cccc(CN(C)C(=O)N[C@H](C(=O)NN(Cc2ccccc2)C[C@H](O)[C@H](Cc2ccccc2)NC(=O)OCc2ccccc2)C(C)C)n1 [Example 10, 5S-(Benzyloxycarbonyl)amino-2-N-((N-methyl-N-((6-ethyl-2-pyridinyl)methyl)amino)carbonyl)-L-valinylamino-4S-hydroxy-1,6-diphenyl-2-azahexane] | 0.5 nM | 830 to 1100 nM | 19000 nM | 50% | 
13 | CC(C)(C)OC(=O)NN(Cc1ccccc1)C[C@H](O)[C@H](Cc1ccccc1)NC(=O)OCc1cncs1 [Example 7F, 5S-(((5-Thiazolyl)methoxy)carbonyl)amino-2-(t-butyloxycarbonyl)amino-4S-hydroxy-1,6-diphenyl-2-azahexane] | 4.4 nM | 6500 to 18200 nM | 44000 nM |  | inhibition at 0.0044 µM (HIV-1 protease; [2]): 50%
14 | CC(C)c1nc(CN(C)C(=O)N[C@H](C(=O)NN(Cc2ccccc2)C[C@H](O)[C@H](Cc2ccccc2)NC(=O)OCc2cncs2)C(C)C)cs1 [Example 8, 5S-(((5-Thiazolyl)methoxy)carbonyl)amino-2-N-((N-methyl-N-((2-isopropyl-4-thiazolyl)methyl)amino)carbonyl)-L-valinylamino-4S-hydroxy-1,6-diphenyl-2-azahexane] |  | 100 to 110 nM | 17000 nM | 77% | 
15 | COc1cccc(CN(C[C@H](O)[C@H](Cc2ccccc2)NC(=O)OCc2ccccc2)NC(=O)OC(C)(C)C)c1 [Example 17B] |  |  |  |  | inhibition at 0.012 µM (HIV-1 protease; [2]): 50%; IC50 (HIV-1 protease; read-out: Inhibitor Concentration (at 50 Percent Inhibition), concentration printed with 50 percent inhibition, pH 4.5, 30° C.): 12 nM
16 | CC(C)c1nc(CN(C)C(=O)N[C@H](C(=O)NN(Cc2cccc(O)c2)C[C@H](O)[C@H](Cc2ccccc2)NC(=O)OCc2cncs2)C(C)C)cs1 [Example 56B, 5S-(((5-Thiazolyl)methoxy)carbonyl)amino-2-N-((((N-methyl-N-2-isopropyl-4-thiazolyl)methyl)amino)carbonyl)-L-valinylamino-4S-hydroxy-1-(3-hydroxyphenyl)-6-phenyl-2-azahexane] |  |  |  | 49% | 
17 | CC(C)(C)OC(=O)NN(Cc1ccccc1)C[C@H](O)[C@H](Cc1ccccc1)NC(=O)OCc1cccnc1 [Example 4B, 5S-((3-Pyridinyl)methoxycarbonyl)amino-2-t-butyloxycarbonylamino-4S-hydroxy-1,6-diphenyl-2-azahexane] | 3.9 nM |  |  |  | inhibition at 0.0039 µM (HIV-1 protease; [2]): 50%
18 | COc1ccc(CN(C[C@H](O)[C@H](Cc2ccccc2)NC(=O)[C@@H](NC(=O)OCc2ccccn2)C(C)C)NC(=O)OC(C)(C)C)cc1 [Example 15, 5S-N-((2-Pyridinyl)methoxycarbonyl)-L-valinylamino-2-N-(t-butyloxycarbonyl)amino-4S-hydroxy-1-p-methoxyphenyl-6-phenyl-2-azahexane] |  | 440 to 600 nM | > 100000 nM | 44% | 
19 | CC(C)c1nc(CN(C)C(=O)N[C@H](C(=O)NN(Cc2ccccc2)C[C@H](O)[C@H](Cc2ccccc2)NC(=O)OCc2ccccc2)C(C)C)cs1 [Example 6H, 5S-(Benzyloxycarbonyl)amino-2-N-(((N-methyl-N-((2-isopropyl-4-thiazolyl)methyl)amino)carbonyl)-L-valinyl)amino-4S-hydroxy-1,6-diphenyl-2-azahexane] |  |  |  | 73% | 
20 | CC(C)(C)OC(=O)NN(Cc1ccoc1)C[C@H](O)[C@H](Cc1ccccc1)NC(=O)OCc1cncs1 [Example 47] | 2.1 nM |  |  |  | inhibition at 0.0021 µM (HIV-1 protease; [2]): 50%

Further lines, with some results ahead:

Row | IC50 (HIV-1 protease) | SMILES | IC50 (HIV-13B in MT4 cells) | CC50 [1] | inhibition at 0.0005 µM (HIV-1 protease; [2]) | further results
21 | 7.4 nM | CC(C)(C)OC(=O)NN(Cc1cccc(O)c1)C[C@H](O)[C@H](Cc1ccccc1)NC(=O)OCc1ccccc1 [Example 55C, 5S-(Benzyloxycarbonyl)amino-2-(t-butyloxycarbonyl)amino-4S-hydroxy-1-(3-hydroxyphenyl)-6-phenyl-2-azahexane] |  |  |  | inhibition at 0.0074 µM (HIV-1 protease; [2]): 50%
22 | 0.5 nM | CC(C)c1nc(COC(=O)N[C@H](C(=O)N[C@@H](Cc2ccccc2)[C@@H](O)CN(Cc2ccc(F)cc2)NC(=O)OC(C)(C)C)C(C)C)co1 [Example 51D] | 209 to 274 nM |  | 50% | 
23 | 9.9 nM | CC(C)(C)OC(=O)NN(Cc1ccc(OCCN2CCOCC2)cc1)C[C@H](O)[C@H](Cc1ccccc1)NC(=O)OCc1ccccc1 [Example 57C, 2-(t-Butyloxycarbonyl)amino-5S-(benzyloxycarbonyl)amino-4S-hydroxy-1-(4-((2-morpholinyl)ethoxy)phenyl)-6-phenyl-2-azahexane] |  |  |  | inhibition at 0.0099 µM (HIV-1 protease; [2]): 50%
24 | 18 nM | CC(C)(C)OC(=O)NN(Cc1ccc(-c2ccccc2)cc1)C[C@H](O)[C@H](Cc1ccccc1)NC(=O)OCc1ccccc1 [Example 58, 2-(t-Butyloxycarbonyl)amino-5S-(benzyloxycarbonyl)amino-4S-hydroxy-1-(4-biphenyl)-6-phenyl-2-azahexane] |  |  |  | inhibition at 0.018 µM (HIV-1 protease; [2]): 50%
25 | 7.5 nM | CC(C)(C)OC(=O)NN(Cc1ccc(O)cc1)C[C@H](O)[C@H](Cc1ccccc1)NC(=O)OCc1ccccc1 [Example 52, 5S-(Benzyloxycarbonyl)amino-2-(t-butyloxycarbonyl)amino-4S-hydroxy-1-(4-hydroxyphenyl)-6-phenyl-2-azahexane] |  |  |  | inhibition at 0.0075 µM (HIV-1 protease; [2]): 50%
